Source: patent US20230338609A1, “MEDICAL DEVICES AND MATERIALS COMPRISING BIODEGRADABLE POLYESTERS” (AMICOAT AS, priority 2020, published 2023)
≈ marks a conversion by molar mass, not a printed value.

Key:
[1] = system: Corynebacterium jeikeium - antibiotic-susceptible clinical isolate; format: cell-based
From the text: (§1) Cation-adjusted Mueller-Hinton broth (Oxoid Ltd., Basingstoke, UK and Trek Diagnostic Systems Ltd., East Grinstead, UK) (supplemented with 5% laked horse blood for Streptococcus spp., Corynebacterium jeikeium and Listeria monocytogenes) was used for aerobic bacteria, with an initial inoculum of approximately 10^5 colony-forming units (CFU)/mL.

[2] = system: Corynebacterium jeikeium - multi-drug resistant clinical isolate; format: cell-based
From the text: as §1

[3] = system: EMRSA1 Staphylococcus aureus (MRSA) - SSCmec type 3; format: cell-based; conditions: EMRSA1 - SSCmec type 3
From the text: as §1

[4] = system: EMRSA16 Staphylococcus aureus (MRSA) - SSCmec type 2; format: cell-based; conditions: EMRSA16 - SSCmec type 2
From the text: as §1

[5] = system: EMRSA3 Staphylococcus aureus (MRSA) - SSCmec type 1; format: cell-based; conditions: EMRSA3 - SSCmec type 1
From the text: as §1

[6] = system: Enterobacter sp - multi-drug resistant clinical isolate; format: cell-based
From the text: as §1

[7] = system: Enterococcus faecalis - ATCC 29212 antibiotic-susceptible control strain; format: cell-based
From the text: as §1

[8] = system: Enterococcus faecalis high-level gentamicin-resistant clinical isolate; format: cell-based
From the text: as §1

[9] = system: Enterococcus faecalis vancomycin-resistant (VanA) clinical isolate; format: cell-based
From the text: as §1

[10] = system: Enterococcus faecalis vancomycin-susceptible clinical isolate; format: cell-based
From the text: as §1

[11] = system: Enterococcus faecium vancomycin-resistant (VanA) clinical isolate; format: cell-based
From the text: as §1

[12] = system: Enterococcus faecium vancomycin-resistant (VanB) clinical isolate; format: cell-based
From the text: as §1

[13] = system: Enterococcus faecium vancomycin-susceptible clinical isolate; format: cell-based
From the text: as §1

[14] = system: Escherichia coli - multi-drug resistant clinical isolate; format: cell-based
From the text: as §1

[15] = system: Escherichia coli ATCC25922 - antibiotic-susceptible type strain; format: cell-based
From the text: as §1

[16] = system: Escherichia coli ATCC32518 - β-lactamase positive type strain; format: cell-based
From the text: as §1

[17] = system: Group C Streptococcus - antibiotic-susceptible clinical isolate; format: cell-based
From the text: as §1

[18] = system: Group G Streptococcus - macrolide-resistant clinical isolate; format: cell-based
From the text: as §1

[19] = system: Listeria monocytogenes - antibiotic-susceptible clinical isolate; format: cell-based
From the text: as §1

[20] = system: Morganella morganii - multi-drug resistant clinical isolate; format: cell-based
From the text: as §1

[21] = system: Pseudomonas aeruginosa ATCC27853 - antibiotic-susceptible type strain; format: cell-based
From the text: as §1

[22] = system: Staphylococcus aureus - methicillin-resistant clinical isolate; format: cell-based
From the text: as §1

[23] = system: Staphylococcus aureus - multi-drug-resistant clinical isolate; format: cell-based
From the text: as §1

[24] = system: Staphylococcus aureus - teicoplanin-intermediate clinical isolate; format: cell-based
From the text: as §1

[25] = system: Staphylococcus aureus ATCC 25923 - antibiotic-susceptible control strain; format: cell-based
From the text: as §1

[26] = system: Staphylococcus epidermidis antibiotic susceptible clinical isolate; format: cell-based
From the text: as §1

[27] = system: Streptococcus agalactiae - antibiotic-susceptible clinical isolate; format: cell-based
From the text: as §1

[28] = system: Streptococcus agalactiae - macrolide-resistant clinical isolate; format: cell-based
From the text: as §1

[29] = system: Streptococcus bovis - antibiotic-susceptible clinical isolate; format: cell-based
From the text: as §1

[30] = system: Streptococcus pneumoniae - penicillin-susceptible clinical isolate; format: cell-based
From the text: as §1

[31] = system: Streptococcus pyogenes - Macrolide (MLS) resistant clinical isolate; format: cell-based
From the text: as §1

[32] = system: Staphylococcus aureus FDA486; test: Murine skin infection model, topical treatment; format: in vivo; conditions: mice; 2% cream; three treatments at three hourly intervals; biopsy three hours after last
Experimental: The skin of mice was infected with Staphylococcus aureus or Streptococcus pyogenes and subsequently given a total of three treatments at three hourly intervals. Three hours after the last treatment, skin biopsies were collected and the number of colony forming units (CFUs) present in the skin sample was determined. Results are shown in FIGS. 1 and 2, expressed as the number of colony forming units per mouse.
The skin of mice was infected with Staphylococcus aureus or Streptococcus pyogenes and subsequently given a total of three treatments at three hourly intervals. Three hours after the last treatment, skin biopsies were collected and the number of colony forming units (CFUs) present in the skin sample was determined. Results are shown in FIGS. 3, 4 and 5 expressed as the number of colony forming units per mouse.

[33] = system: Propionibacterium acnes- antibiotic-resistant clinical isolate; conditions: P. acnes antibiotic-resistant
[34] = system: Staphylococcus aureus, strain ATCC 25923; conditions: ATCC 25923
[35] = system: Methicillin resistant Staphylococcus aureus (MRSA) strain ATCC 33591; conditions: ATCC 33591
[36] = system: Methicillin resistant Staphylococcus epidermidis (MRSE) strain ATCC 27626; conditions: ATCC 27626

Compound: CCCCCCNC(=O)[C@H](CCCNC(=N)N)NC(=O)[C@H](Cc1c(C(C)(C)C)[nH]c2c(C(C)(C)C)cc(C(C)(C)C)cc12)NC(=O)[C@@H](N)CCCNC(=N)N [Compound 8]
- MIC [1]: 4 µg/mL (≈ 5.21 µM)
- MIC [2]: 2 µg/mL (≈ 2.6 µM)
- MIC [3]: 4 µg/mL (≈ 5.21 µM)
- MIC [4]: 4 µg/mL (≈ 5.21 µM)
- MIC [5]: 4 µg/mL (≈ 5.21 µM)
- MIC [6]: 8 µg/mL (≈ 10.4 µM)
- MIC [7]: 4 µg/mL (≈ 5.21 µM)
- MIC [8]: 8 µg/mL (≈ 10.4 µM)
- MIC [9]: 4 µg/mL (≈ 5.21 µM)
- MIC [10]: 4 µg/mL (≈ 5.21 µM)
- MIC [11]: 4 µg/mL (≈ 5.21 µM)
- MIC [12]: 4 µg/mL (≈ 5.21 µM)
- MIC [13]: 4 µg/mL (≈ 5.21 µM)
- MIC [14]: 8 µg/mL (≈ 10.4 µM)
- MIC [15]: 4 µg/mL (≈ 5.21 µM)
- MIC [16]: 8 µg/mL (≈ 10.4 µM)
- MIC [17]: 8 µg/mL (≈ 10.4 µM)
- MIC [18]: 8 µg/mL (≈ 10.4 µM)
- MIC [19]: 8 µg/mL (≈ 10.4 µM)
- MIC [20]: 8 µg/mL (≈ 10.4 µM)
- MIC [21]: 8 µg/mL (≈ 10.4 µM)
- MIC [22]: 4 µg/mL (≈ 5.21 µM)
- MIC [23]: 4 µg/mL (≈ 5.21 µM)
- MIC [24]: 4 µg/mL (≈ 5.21 µM)
- MIC [25]: 4 µg/mL (≈ 5.21 µM)
- MIC [26]: 8 µg/mL (≈ 10.4 µM)
- MIC [27]: 8 µg/mL (≈ 10.4 µM)
- MIC [28]: 8 µg/mL (≈ 10.4 µM)
- MIC [29]: 8 µg/mL (≈ 10.4 µM)
- MIC [30]: 8 µg/mL (≈ 10.4 µM)
- MIC [31]: 8 µg/mL (≈ 10.4 µM)
- number of CFUs in skin biopsy vs controls [32]: more effective at reducing the number of CFUs than the placebo and fucidin or bactroban
- MIC [33]: 2 µg/mL (≈ 2.6 µM)
- S. aureus (MIC) [34]: 2 µg/mL
- MRSA (MIC) [35]: 2 µg/mL
- MRSE (MIC) [36]: <1 µg/mL
